For this assay, the system named is P388 leukemia ip, CD2F1 mice, survival T/C. In words: NCI In Vivo Anticancer Drug Screen. Data for tumor model P388 Leukemia (intraperitoneal) in CD2F1 (CDF1) mice. As to conditions: endpoint: median survival time, higher = longer survival. Summed up:
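Mice carrying the transplanted tumor received test compound or vehicle. Survival was recorded in each group, and the value is the treated-group measurement divided by that of the vehicle-treated control group.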

Setting [1] is: dose: 50.0 mg/kg/injection, schedule: Q01DX009 (ip), vehicle: saline with Tween-80.
Where [2] appears, read: dose: 100.0 mg/kg/injection, schedule: Q01DX009 (ip), vehicle: saline with Tween-80.
[3] abbreviates: dose: 100.0 mg/kg/injection, schedule: Q04DX003 (ip), vehicle: saline with Tween-80.
Where [4] appears, read: dose: 200.0 mg/kg/injection, schedule: Q04DX003 (ip), vehicle: saline with Tween-80.
[5] abbreviates: dose: 100.0 mg/kg/injection, schedule: Q01DX001 (ip), vehicle: Klucel (hydroxypropylcellulose) (HPC).
The mark [6] stands for this setting: dose: 200.0 mg/kg/injection, schedule: Q01DX001 (ip), vehicle: Klucel (hydroxypropylcellulose) (HPC).
The mark [7] stands for this setting: dose: 400.0 mg/kg/injection, schedule: Q01DX001 (ip), vehicle: Klucel (hydroxypropylcellulose) (HPC).
Where [8] appears, read: dose: 200.0 mg/kg/injection, schedule: Q04DX003 (ip), vehicle: saline.
Setting [9] is: dose: 400.0 mg/kg/injection, schedule: Q04DX003 (ip), vehicle: saline.
The mark [10] stands for this setting: dose: 60.0 mg/kg/injection, schedule: Q01DX005 (ip), vehicle: saline with Tween-80.
The mark [11] stands for this setting: dose: 120.0 mg/kg/injection, schedule: Q01DX005 (ip), vehicle: saline with Tween-80.
The mark [12] stands for this setting: dose: 240.0 mg/kg/injection, schedule: Q01DX005 (ip), vehicle: saline with Tween-80.
The mark [13] stands for this setting: dose: 50.0 mg/kg/injection, schedule: Q01DX005 (ip), vehicle: saline with Tween-80.
The mark [14] stands for this setting: dose: 100.0 mg/kg/injection, schedule: Q01DX005 (ip), vehicle: saline with Tween-80.
[15] abbreviates: dose: 200.0 mg/kg/injection, schedule: Q01DX005 (ip), vehicle: saline with Tween-80.
The mark [16] stands for this setting: dose: 25.0 mg/kg/injection, schedule: Q01DX009 (ip), vehicle: saline.
[17] abbreviates: dose: 50.0 mg/kg/injection, schedule: Q01DX009 (ip), vehicle: saline.
The mark [18] stands for this setting: dose: 100.0 mg/kg/injection, schedule: Q01DX009 (ip), vehicle: saline.
[19] abbreviates: dose: 200.0 mg/kg/injection, schedule: Q01DX009 (ip), vehicle: saline.
[20] abbreviates: dose: 200.0 mg/kg/injection, schedule: Q01DX009 (ip), vehicle: saline with Tween-80.
[21] abbreviates: dose: 50.0 mg/kg/injection, schedule: Q01DX005 (ip), vehicle: Klucel (hydroxypropylcellulose) (HPC).
Where [22] appears, read: dose: 100.0 mg/kg/injection, schedule: Q01DX005 (ip), vehicle: Klucel (hydroxypropylcellulose) (HPC).
Setting [23] is: dose: 200.0 mg/kg/injection, schedule: Q01DX005 (ip), vehicle: Klucel (hydroxypropylcellulose) (HPC).

Several values for one entry are separate records, joined by “and”; a condition that tells them apart may be missing. Identical values can stand only once. Toxic doses and inconclusive results are not listed.

As for `CCOC(=O)C(NC(=O)C(Cc1ccc(N(CCCl)CCCl)cc1)NC(C)=O)C(C)C` (configuration not stated), the T/C runs as follows: (dose: 3.13 mg/kg/injection, schedule: Q04DX003 (ip), vehicle: saline) 100 % of control; (dose: 6.25 mg/kg/injection, schedule: Q04DX003 (ip), vehicle: saline) 109 % of control; (dose: 12.5 mg/kg/injection, schedule: Q04DX003 (ip), vehicle: saline) 118 % of control; (dose: 25.0 mg/kg/injection, schedule: Q01DX009 (ip), vehicle: saline with Tween-80) 160 % of control; under setting [1], 180 % of control; (dose: 50.0 mg/kg/injection, schedule: Q04DX003 (ip), vehicle: saline with Tween-80) 159 % of control. In addition, the T/C is, setting by setting: under setting [2], 245 % of control; under setting [3], 163 % of control and 175 % of control; (dose: 150.0 mg/kg/injection, schedule: Q04DX003 (ip), vehicle: other) 151 % of control; (dose: 160.0 mg/kg/injection, schedule: Q04DX003 (ip), vehicle: other) 161 % of control; under setting [4], 154 % of control; (dose: 300.0 mg/kg/injection, schedule: Q04DX003 (ip), vehicle: other) 174 % of control. Also, under “dose: 400.0 mg/kg/injection, schedule: Q04DX003 (ip), vehicle: other”, the T/C was 159 % of control.

Regarding `Cn1ccnc1Sc1ccccn1`, the T/C (dose: 60.0 mg/kg/injection, schedule: Q01DX005 (ip), vehicle: saline) was 104 % of control; the T/C (dose: 120.0 mg/kg/injection, schedule: Q01DX005 (ip), vehicle: saline) is 107 % of control; the T/C (dose: 240.0 mg/kg/injection, schedule: Q01DX005 (ip), vehicle: saline) was 89 % of control.

With `CC1=C(C)C(=O)C(C(C)(C)CC(=O)n2cc(F)c(=O)[nH]c2=O)=C(C)C1=O`, for the setting “dose: 100.0 mg/kg/injection, schedule: Q01DX001 (ip), vehicle: saline with Tween-80”, the T/C is 111 % of control.

Consider `CC1(C)CC(OP(=O)(N(CCCl)CCCl)N2CC2)CC(C)(C)N1O` (configuration not stated), for which the T/C reads like this: (dose: 13.0 mg/kg/injection, schedule: Q01DX009 (ip), vehicle: saline + alcohol) 102 % of control; (dose: 25.0 mg/kg/injection, schedule: Q01DX009 (ip), vehicle: saline + alcohol) 102 % of control; (dose: 50.0 mg/kg/injection, schedule: Q01DX009 (ip), vehicle: saline + alcohol) 114 % of control.

For `[N-]=[N+]=NC(c1ccccc1)n1nnnc1-c1ccccc1` (configuration not stated), the T/C under setting [5] was 101 % of control and 88 % of control; the T/C under setting [6] is 102 % of control and 95 % of control; the T/C under setting [7] is 98 % of control and 120 % of control.

Turning to `CCCCCCCCCC(=O)NC(CN1CCOCC1)C(=O)c1ccccc1` (configuration not stated), the T/C was 87 % of control under setting [8] and 88 % of control under setting [9].

`Cc1c(CN2CCOC(c3ccccc3)C2C)c(=O)n(-c2ccccc2)n1C` (configuration not stated): the T/C reads like this: (dose: 50.0 mg/kg/injection, schedule: Q01DX009 (ip), vehicle: Klucel (hydroxypropylcellulose) (HPC)) 93 % of control; (dose: 100.0 mg/kg/injection, schedule: Q01DX009 (ip), vehicle: Klucel (hydroxypropylcellulose) (HPC)) 103 % of control.

For the molecule `Cn1c(C2CCC(=O)N2Cc2ccccc2)n[nH]c1=S` (configuration not stated), the T/C under setting [10] is 101 % of control, the T/C under setting [11] is 101 % of control and the T/C under setting [12] was 100 % of control.

Regarding `CC(C)OCc1cn[nH]n1`, the T/C is, setting by setting: under setting [10], 100 % of control; under setting [11], 97 % of control; under setting [12], 103 % of control.

Consider `CCOC(=O)C1CCC/C1=N/Nc1ccc([N+](=O)[O-])cc1[N+](=O)[O-]` (configuration not stated), for which the T/C by setting is: under setting [5], 94 % of control; under setting [6], 93 % of control; under setting [7], 93 % of control.

With `CCCCC(CCCCCC(CCCC)C1NCCc2cc(OC)c(OC)cc21)C1NCCc2cc(OC)c(OC)cc21` (configuration not stated), the T/C is, setting by setting: (dose: 6.25 mg/kg/injection, schedule: Q01DX005 (ip), vehicle: saline with Tween-80) 91 % of control; (dose: 12.5 mg/kg/injection, schedule: Q01DX005 (ip), vehicle: saline with Tween-80) 93 % of control; (dose: 25.0 mg/kg/injection, schedule: Q01DX005 (ip), vehicle: saline with Tween-80) 93 % of control.

As for `N#CCCN/N=C\c1ccc2c(c1)OCO2`, the T/C reads like this: under setting [3], 102 % of control; under setting [4], 96 % of control; (dose: 400.0 mg/kg/injection, schedule: Q04DX003 (ip), vehicle: saline with Tween-80) 92 % of control.

Consider `O=P(OCC(F)(F)F)(c1ccccc1)c1ccccc1`, for which the T/C is 108 % of control under setting [13], 104 % of control under setting [14] and 112 % of control under setting [15].

On to `CCOC(=O)CC1=NN=C(N)SC1`, for which the T/C is, setting by setting: (dose: 12.5 mg/kg/injection, schedule: Q01DX009 (ip), vehicle: saline) 100 % of control; under setting [16], 101 % of control and 103 % of control; under setting [17], 101 % of control and 106 % of control; under setting [18], 93 % of control and 97 % of control; under setting [19], 87 % of control.

Turning to `COc1ccc(C23OCN(c4ccccc4)C2(c2ccc(OC)cc2)c2ccccc2N3C)cc1` (configuration not stated), the T/C is, setting by setting: under setting [10], 103 % of control; under setting [11], 100 % of control; under setting [12], 94 % of control.

With `O=C(N1CCN(c2ccccc2)C1=O)N1CCN(c2ccccc2)C1=O`, the T/C by setting is: under setting [1], 98 % of control; under setting [2], 95 % of control; under setting [20], 91 % of control.

`CCSC(C/C=C/c1ccccc1)S(=O)CC` (configuration not stated): the T/C reads like this: (dose: 100.0 mg/kg/injection, schedule: Q04DX003 (ip), vehicle: saline) 99 % of control; under setting [8], 107 % of control; under setting [9], 105 % of control.

As for `COC(=O)C(=O)C(C#N)c1ccc(C)cc1` (configuration not stated), the T/C under setting [10] is 104 % of control, the T/C under setting [11] was 104 % of control and the T/C under setting [12] was 103 % of control.

`CCCCNCCC1(CCC(C)C)C(=O)NC(=O)NC1=O`: the T/C under setting [21] was 96 % of control, the T/C under setting [22] was 105 % of control and the T/C under setting [23] was 101 % of control.

As to `O=C(O)Cc1ccc(-c2cn3c(n2)sc2ccccc23)cc1`, the T/C by setting is: under setting [17], 108 % of control; under setting [18], 107 % of control; under setting [19], 112 % of control.

Turning to `CC(C)=CCN1CCC2(C)c3cc(O)ccc3CCC2C1` (configuration not stated), the T/C runs as follows: under setting [21], 94 % of control; under setting [22], 104 % of control; under setting [23], 94 % of control.

For `CCCCCCCCCCN(CCCCCCCCCC)C(=O)C(C)OC(C)=O` (configuration not stated), the T/C under setting [13] was 98 % of control, the T/C under setting [14] is 101 % of control and the T/C under setting [15] is 104 % of control.

For `CN1CCN(CC(O)COc2c3ccccc3nc3ccccc23)CC1` (configuration not stated), the T/C was 104 % of control under setting [13] and 95 % of control under setting [14].

Consider `COC1(OC)C2C=CC1C1CC/C=C\CCC12` (configuration not stated), for which the T/C under setting [1] was 106 % of control, the T/C under setting [2] is 100 % of control and the T/C under setting [20] was 103 % of control.

Regarding `O=C(NCCCl)Oc1cccn(C(=O)NCCCl)c1=O`, the T/C is, setting by setting: (dose: 12.5 mg/kg/injection, schedule: Q01DX009 (sc), vehicle: saline with Tween-80) 106 % of control and 111 % of control; under setting [16], 111 % of control and 113 % of control; (dose: 25.0 mg/kg/injection, schedule: Q01DX009 (sc), vehicle: saline with Tween-80) 100 % of control and 115 % of control; under setting [17], 112 % of control and 118 % of control; (dose: 50.0 mg/kg/injection, schedule: Q01DX009 (sc), vehicle: saline with Tween-80) 102 % of control and 115 % of control; (dose: 100.0 mg/kg/injection, schedule: Q01DX009 (sc), vehicle: saline with Tween-80) 109 % of control and 115 % of control. The T/C is 111 % of control and 123 % of control (dose: 200.0 mg/kg/injection, schedule: Q01DX009 (sc), vehicle: saline with Tween-80); 95 % of control (dose: 400.0 mg/kg/injection, schedule: Q01DX009 (sc), vehicle: saline with Tween-80).

The values above are taken from PubChem BioAssay AID330 (DTP/NCI, 2004).
